# Test results: paper PMC10582335 (Frontiers in Pharmacology, 2023)
# Read-outs that look alike come from different tables or passages of the source.
# What was measured:
# [1] = cited from earlier work; for terminal half-life: 2008
# [2] = tested on: Abcb1a mRNA (P-gp); assay: qRT-PCR of mRNA expression in rat tissues after multiple-dose almonertinib; format: in vivo; conditions: rats given almonertinib for nine consecutive days, n = 3
# Description: Sixty healthy rats were randomly divided into ten groups (n = 6). […] Blood samples were centrifuged at 3,500 g for 10 min, and then the supernatant was gathered and stored in a -80°C refrigerator. After, rat intestine, kidney and liver tissues were harvested for molecular analysis on the ninth or fifth day after treatment with the corresponding drugs for each group. The tissues were placed immediately at -80°C. qRT-PCR analysis was used to determine mRNA levels of Abcb1a, Abcg2 and Cyp3a1 in the liver and intestines, and Abcb1a and Abcg2 in the kidney of rats. Total RNA was isolated from frozen liver, intestine and kidney samples using TRNzol Universal according to the manufacturer's instructions. A Bio Tek Epoch (Bio Tek Instruments, Inc., Winooski, VT, United States) was employed to quantify the purity and concentration of the total RNA based on the ratio of the absorbance between 260 and 280 nm. RNA samples of 1 μg were transformed to complementary DNA (cDNA) using the […] Kit. The real-time PCR assays were accomplished using a two-step amplification method based on the recommendations in a SLAN-96S Real-Time PCR system (Shanghai Hongshi Medical Technology Co., Ltd. Shanghai, China). […] was used as an internal control, and the PCR cycling criteria were as follows: 95°C for 15 min, then 40 cycles of 95°C for 10, and 60°C for 32 s.
# [3] = Stability in rat plasma under storage and processing conditions (QC samples, UPLC-MS/MS); conditions: n = 6
# Description: The stability of plasma samples was validated by the QC samples at three concentration levels in six replicates under various storage and processing conditions: autosampler for 24 h after preprocessing, room temperature for 8 h, −80°C for 30 days, and three freeze-thaw cycles (−80°C to room temperature). The samples were verified to be stable if the deviation of the samples was not more than ±15% of the standard concentration.
# [4] = Freeze-thaw stability for three times, high QC (nominal 150 almonertinib, 800 apixaban, 1,500 rivaroxaban ng/mL)
# [5] = Freeze-thaw stability for three times, low QC (nominal 1 almonertinib, 2 apixaban, 10 rivaroxaban ng/mL)
# [6] = Freeze-thaw stability for three times, medium QC (nominal 80 almonertinib, 400 apixaban, 800 rivaroxaban ng/mL)
# [7] = Room temperature for 8 h, high QC (nominal 150 almonertinib, 800 apixaban, 1,500 rivaroxaban ng/mL)
# [8] = Room temperature for 8 h, low QC (nominal 1 almonertinib, 2 apixaban, 10 rivaroxaban ng/mL)
# [9] = Room temperature for 8 h, medium QC (nominal 80 almonertinib, 400 apixaban, 800 rivaroxaban ng/mL)
# [10] = −80°C for 30 days, high QC (nominal 150 almonertinib, 800 apixaban, 1,500 rivaroxaban ng/mL)
# [11] = −80°C for 30 days, low QC (nominal 1 almonertinib, 2 apixaban, 10 rivaroxaban ng/mL)
# [12] = −80°C for 30 days, medium QC (nominal 80 almonertinib, 400 apixaban, 800 rivaroxaban ng/mL)
"Stability: Accuracy (RE%) [3, 4]","Stability: measured concentration, Mean ± SD [3, 4]","Stability: Accuracy (RE%) [3, 5]","Stability: measured concentration, Mean ± SD [3, 5]","Stability: Accuracy (RE%) [3, 6]","Stability: measured concentration, Mean ± SD [3, 6]","Stability: Accuracy (RE%) [3, 7]","Stability: measured concentration, Mean ± SD [3, 7]","Stability: Accuracy (RE%) [3, 8]","Stability: measured concentration, Mean ± SD [3, 8]","Stability: Accuracy (RE%) [3, 9]","Stability: measured concentration, Mean ± SD [3, 9]","Stability: Accuracy (RE%) [3, 10]","Stability: measured concentration, Mean ± SD [3, 10]","Stability: Accuracy (RE%) [3, 11]","Stability: measured concentration, Mean ± SD [3, 11]","Stability: Accuracy (RE%) [3, 12]","Stability: measured concentration, Mean ± SD [3, 12]",Compound,further results
−2.56%,146.17 ± 6.68 ng/mL,1.47%,1.01 ± 0.09 ng/mL,2.13%,81.7 ± 2.27 ng/mL,−1.67%,147.50 ± 9.83 ng/mL,0.97%,1.01 ± 0.08 ng/mL,0.60%,80.48 ± 6.42 ng/mL,−2.22%,146.67 ± 10.63 ng/mL,2.33%,1.02 ± 0.10 ng/mL,0.65%,80.52 ± 3.47 ng/mL,"C=CC(=O)Nc1cc(Nc2nccc(-c3cn(C4CC4)c4ccccc34)n2)c(OC)cc1N(C)CCN(C)C [almonertinib, Almonertinib]","half-life ([1]; almonertinib, ref Yang et al., 2020): 30 to 35 h; inhibition of mRNA expression of Abcb1a ([2]; intestine): 51.3%; inhibition of mRNA expression of Abcb1a ([2]; kidney): 42.9%"
−5.56%,"1,416.67 ± 48.85 ng/mL",1.13%,10.11 ± 0.61 ng/mL,−3.21%,774.33 ± 23.28 ng/mL,−1.11%,"1,483.33 ± 72.30 ng/mL",7.75%,10.78 ± 0.59 ng/mL,4.19%,833.50 ± 49.92 ng/mL,−4.33%,"1,435.00 ± 96.07 ng/mL",6.83%,10.68 ± 0.22 ng/mL,−4.38%,765.00 ± 58.14 ng/mL,"O=C(NC[C@H]1CN(c2ccc(N3CCOCC3=O)cc2)C(=O)O1)c1ccc(Cl)s1 [rivaroxaban, Rivaroxaban]","time of the maximal blood concentration after oral intake ([1]; (±1 h), each of two drugs, ref Steffel et al., 2021): 2 to 3 h; time to reach maximum plasma concentrations ([1]; after oral administration, ref Kubitza et al., 2005a, Kubitza et al., 2005b, Raghavan et al., 2009): 2 to 4 h; terminal half-life ([1]; elderly subjects, ref Kubitza et al., 2005a, Kubitza et al.): 11 to 13 h; terminal half-life ([1]; healthy young subjects, ref Kubitza et al., 2005a, Kubitza et al.): 5 to 9 h"
